Measurements taken from patent US20130131079A1, “FLUFENOXINE DERIVATIVES FOR THE TREATMENT AND PREVENTION OF AMYLOID PATHOLOGIES” (FAES FARMA, S.A., priority 2010, published 2013).
Structures can show the parent of a compound that is named as a salt. Where two headings read alike, the source gives them in different places.

Key:
tau phosphorylation = assay: Ability to modify levels of tau phosphorylation in primary culture of cerebellar granule neurons and/or brain cortex (Western Blot, Tau 1, PHF1); format: cell-based, mice; conditions: CGN or brain cortex neurons
Experimental: a)—Mouse cortex neurons: brains were obtained from 16-18-day old embryos. The two hemispheres, olfactory bulbs and brain stem were separated. The meninges were removed and the cut tissue was transferred to a 50 ml flask. 10 ml HBSS without Ca without Mg (without phenol red) were added. Two further washings with 3 ml HBSS were performed and digestion was performed with Trypsin-DNase at 37° C. The suspension was broken up by passing the material through glass pipettes with different thicknesses. The cells were cut and cultured in Dulbecco's Modified Eagle's medium (DMEM)+10% FCS. After 3 hours the final medium was placed in Neurobasal medium+B27 Supplement+KCl+glutamine+antibiotics.
(§1) b) CGN: Cerebellar granule neurons derived from wild-type or transgenic mice were obtained from 6-day old mice. The basic process was similar to the previous one: obtaining and breaking up the tissue was similar and culturing and maintaining in final media was identical. The cerebellum was broken up by treatment with trypsin-EDTA for about 15-20 min and subsequently cultured in plates treated with Poly-L-Lysine (50 micrograms/m1). The neurons were maintained in a serum-free medium, Neurobasal medium+B27 Supplement+KCl+glutamine+antibiotics.
Ability to Modify Levels of Tau Phosphorylation in Primary Culture of Cerebellar Granule Neurons (CGN) and/or Brain Cortex Derived from Mice (Wild Strain)
The data was obtained in relation to the mean of 3 independent experiments of the relative level of tau-1 in soluble cell extracts obtained from cerebellar granule or brain cortex neurons treated with the indicated compounds. The ability to modify the level of tau phosphorylation in cortex neurons or cerebellar granule of […] was analyzed through Western Blot using specific antibodies in a series of fosfo-epitopes (Tau 1, PHF1) after 1, 2 and 3 incubation hours. Actine was used as reference (indicator of the total mass).

[1] = tested on: primary cultures of CGN (cerebellar granule neurons); assay: Toxicity and cell viability in primary cultures of CGN; format: cell-based, mice; conditions: 24 or 48 hours, Coomassie staining, absorbance at 595 nm
Experimental: as §1
The cell viability of different strains was studied in the presence of the compounds of the invention. […] In the toxicity assays, the cells (whether neurons or established lines) were seeded in 24-well plates and exposed to different concentrations of the drug in Dulbecco's Modified Eagle's medium (DMEM)+10% FCS or in the Neurobasal medium+B27 Supplement+KCl+glutamine+antibiotics when primary neurons were used. The treatments were stopped after 24 or 48 hours by fixing the cells with 4% paraformaldehyde for 30 minutes. The fixed cells were stained with 0.2% Coomassie Brilliant blue R-250 in 10% acetic acid/40% methanol for 1 hour at ambient temperature. […] Then it was acidified with 10% trichloroacetic acid and the number of cells was measured in an Elisa reader, with absorbance at 595 nm. […]

cell line CHO-APP-PS1 = assay: Toxicity and cell viability in cultures of cell line CHO-APP-PS1; format: cell-based, Chinese hamster
Experimental: The cell viability of different strains was studied in the presence of the compounds of the invention. […] In the toxicity assays, the cells (whether neurons or established lines) were seeded in 24-well plates and exposed to different concentrations of the drug in Dulbecco's Modified Eagle's medium (DMEM)+10% FCS or in the Neurobasal medium+B27 Supplement+KCl+glutamine+antibiotics when primary neurons were used. The treatments were stopped after 24 or 48 hours by fixing the cells with 4% paraformaldehyde for 30 minutes. The fixed cells were stained with 0.2% Coomassie Brilliant blue R-250 in 10% acetic acid/40% methanol for 1 hour at ambient temperature. The stained cells were washed thoroughly with distilled water, and once dried the incorporated dye was extracted with 0.1 N NaOH in 50% methanol. Then it was acidified with 10% trichloroacetic acid and the number of cells was measured in an Elisa reader, with absorbance at 595 nm. DMSO (10 μl/well) was used as a control. […] The medium was collected for 6 hours, and then it was diluted 5 times and analyzed in duplicate using a Biosource ELISA kit (h 1-40 βAmyloid—Ref #KHB3482).

[2] = at 5 and/or 10 micromolar, relative level of tau-1
[3] = relative level of tau-1 in soluble cell extracts, mean of 3 experiments

SMILES	ability to modify the level of tau phosphorylation (tau phosphorylation; [2])	other results
Clc1ccc(C(Oc2cccc3ccccc23)C2CCNCC2)cc1 (racemic) [COMPOUND 31, (+/−)-4-[(Naphthalen-1-oxy)(4-chlorophenyl)methyl]piperidine hemisulphate]	modify tau phosphorylation	toxicity (cell viability) [1]: somewhat toxic only at certain concentrations
Fc1cc(COc2ccc3c(c2)OCO3)cc(OC(c2ccccc2)C2CCNCC2)c1 (racemic) [COMPOUND 32, hydrochloride]	modify tau phosphorylation	–
NCCN1CCC(C(Oc2cccc(F)c2)c2ccccc2)CC1 (racemic) [COMPOUND 37, (+/−)-4-[(3-fluorophenoxy)phenylmetyl]piperidin-1-yl]ethylamine oxalate]	modify tau phosphorylation	toxicity (cell viability) [1]: somewhat toxic only at certain concentrations
Ic1cccc(OC(c2ccccc2)C2CCNCC2)c1 (stereo not drawn) [COMPOUND 3]	–	toxicity (cell viability) (cell line CHO-APP-PS1): none of them giving rise to statistically relevant toxicity levels; ability to modify the level of tau phosphorylation (tau phosphorylation; [3]): modify tau phosphorylation
Cc1ccc(Cl)cc1OC(c1ccccc1)C1CCNCC1 (stereo not drawn) [COMPOUND 10]	–	toxicity (cell viability) (cell line CHO-APP-PS1; cultures of cell line CHO-APP-PS1, 24 or 48 hours, Coomassie staining, absorbance at 595 nm): none of them giving rise to statistically relevant toxicity levels; ability to modify the level of tau phosphorylation (tau phosphorylation; [3]): modify tau phosphorylation
Fc1ccccc1OC(c1ccccc1)C1CCNCC1 (stereo not drawn) [COMPOUND 21]	modify tau phosphorylation	–
Fc1ccc(OC(CC2CCNCC2)c2ccc(F)cc2)cc1 (stereo not drawn) [COMPOUND 24]	modify tau phosphorylation	–
Fc1ccc(OC(CC2CCNCC2)c2ccccc2)cc1 (stereo not drawn) [COMPOUND 27]	modify tau phosphorylation	–
FC(F)(F)c1ccccc1OC(c1ccccc1)C1CCNCC1 (stereo not drawn) [COMPOUND 29]	modify tau phosphorylation	–
Clc1ccc(OC(c2ccccc2)C2CCNCC2)cc1Cl (stereo not drawn) [COMPOUND 34]	modify tau phosphorylation	–
c1ccc(C(Oc2cccc3ccccc23)C2CCNCC2)cc1 (stereo not drawn) [COMPOUND 35]	modify tau phosphorylation	–
Clc1ccc(/C=C(\c2ccccc2)C2CCNCC2)cc1 [COMPOUND 36, (Z)-4-[(1-phenyl)-2-(4-chlorophenyl)ethen-1-yl]piperidine]	modify tau phosphorylation	–
c1ccc(-c2ccccc2OC(c2ccccc2)C2CCNCC2)cc1 (stereo not drawn) [COMPOUND 40]	modify tau phosphorylation	–
FC(F)(F)c1ccc(OC(c2ccccc2)C2CCNCC2)cc1 (stereo not drawn) [COMPOUND 41]	modify tau phosphorylation	–
